Measurements from patent US20210179680A1, “POLYPEPTIDE, DERIVATIVES THEREOF, AND APPLICATION THEREOF IN PREPARATION OF DRUGS HAVING RESISTANCE TO PULMONARY FIBROSIS” (priority 2016, published 2021).
Bridge positions count the residues as written; N and C are the ends. Square brackets hold non-standard residues; d marks the D form. Peptide text beside a SMILES is read from it. S5 = C=CCCC[C@](C)(N)C(=O)O

Key:
[1] = target: T1, TRB3/MDM2 protein interaction (Homo sapiens, UniProt Q96RU7); assay: Co-immunoprecipitation: inhibition of binding of MDM2 to TRB3 in BEAS-2B cells; assay type: cell-based; conditions: BEAS-2B cells with TRB3 expression plasmid, 1 mg/mL polypeptide, 12 hours, co-IP with MDM2 antibody
T1 construct: host or cells: BEAS-2B
T1 sequence (Q96RU7 1-358): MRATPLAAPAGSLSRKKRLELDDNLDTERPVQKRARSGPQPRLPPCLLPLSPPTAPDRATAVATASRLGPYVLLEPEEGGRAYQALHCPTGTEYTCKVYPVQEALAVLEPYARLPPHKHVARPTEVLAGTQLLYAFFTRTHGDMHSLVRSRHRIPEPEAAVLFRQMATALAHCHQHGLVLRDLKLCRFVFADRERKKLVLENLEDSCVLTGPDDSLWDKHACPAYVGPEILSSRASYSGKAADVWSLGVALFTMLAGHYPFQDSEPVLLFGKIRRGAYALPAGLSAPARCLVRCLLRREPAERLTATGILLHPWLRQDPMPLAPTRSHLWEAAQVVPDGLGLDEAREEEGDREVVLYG
Description: 1. Human lung epithelial BEAS-2B cells (purchased from Institute of Basic Medical Sciences, Chinese Academy of Medical Sciences) were seeded in a 90 mm^2 culture dish. After the cells were adhered to the wall of culture dish, the TRB3 expression plasmid were transferred to the cells according to the method described in Example 5. After 24 hours, 1 mg/mL of the polypeptides MR2, S1, S2, S3, S4, S5, S6, S7, S8, S9, S10 or S11 prepared in Example 1 were added respectively, and the cells were incubated for 12 hours in a 37° C. incubator and then harvested.
2. Co-immunoprecipitation with MDM2 antibody was performed according to the method described in Example 3, followed by detection using TRB3 antibody.

[2] = target: T2, TRB3 protein (Homo sapiens, UniProt Q96RU7); assay: Surface plasmon resonance (Biacore T200) binding of polypeptides to TRB3 protein; conditions: SPR, FIG. 4-1, 4-2 and Table 1
T2 construct: purchased RD
T2 sequence (Q96RU7 1-358): T1 sequence (Q96RU7 1-358)
Description: The surface plasmon resonance experiment was carried out in a surface plasmon resonator Biacore T200, and the procedure was carried out in accordance with the instructions of the plasma resonator Biacore T200. Specific steps are as follows:
1. Purified TRB3 protein (purchased from RD) was coupled to a CMS chip (purchased from GE) by amidogen, and the unbound protein was eluted at a flow rate of 10 μL/min. The surface of the chip was equilibrated for 2 hours. Among them, the specific steps of amidogen coupling, elution and equilibration refer to the relevant instruction of GE's CMS chip.
2. 250 μL of the S1-S11 and MR2 polypeptide fragments prepared in Example 1 with different concentrations (800, 400, 200, 50, 12.5, 6.25, and 3.125 nM) were automatically injected, and the entire surface plasmon resonance experiment was carried out at 25° C. The buffer used was HBS-EP buffer [0.01 M HEPES, 0.15 M NaCl, 3 mM EDTA and 0.005% (w/w) surfactant TWEEN20]. Biacore T200's built-in analysis software was used to simulate the binding curves of different concentrations of peptides to TRB3.

[3] = α-helix ratio of polypeptides by circular dichroism; assay type: physicochemical; conditions: PBS solution, 1 mg/mL
Description: The α-helix ratio of the polypeptide was measured by a circular dichromatograph (purchased from Jasco, Japan). The polypeptides MR2, S1, S2, S3, S4, S5, S6, S7, S8, S9, S10 and S11 prepared in Example 1 were dissolved in PBS solution, and the working concentration of the circular dichromatograph was adjusted to 1 mg/mL. […] Among them, the α-helix ratio refers to the percentage of the number of peptide segments of the polypeptide that maintains the alpha helix of the secondary structure in the peptide segments of the total polypeptide.

[4] = test system: mice with bleomycin-induced pulmonary fibrosis; assay: HE staining pathomorphology and inflammatory score of bleomycin-induced pulmonary fibrosis; assay type: in vivo, C57BL/6 mice; conditions: 2 mg/kg i.p., after 28 days, grade 0-5; for Inflammatory score: Table 3 groups; for Inflammatory scoring: Table 9 groups
Description: Male C57BL/6 mice were fasted overnight, then anesthetized with 45 mg/kg sodium pentobarbital by injection intraperitoneally (i.p.), and intratracheally injected with bleomycin at a dose of 3 U/kg. The specific operation steps are as follows: cut the neck skin of the mouse with as little trauma as possible, expose the trachea with the assistance of elbow ophthalmic forceps, puncture the trachea and inject about 50 μL of bleomycin into the trachea with a microsyringe, rotate the mouse quickly and stand it upright for 5 minutes in order to make bleomycin evenly enter the left and right lobe, thereby constructing an animal model. The whole operation was performed at a surgical table at about […]. Mice in the sham operation group were intratracheally injected with an equal amount of physiological saline for injection.
General tissue changes and tissue products can be visualized by HE staining method, namely Hematoxylin and Eosin staining method, which is the most commonly used staining method for morphology. Among them, hematoxylin dyeing solution is an alkaline dyeing solution, which mainly makes the chromatin in the nucleus and the ribosome in the cytoplasm purple blue; eosin is an acid dye, which mainly makes the components in the cytoplasm and extracellular matrix red. Pulmonary fibrosis models were made according to the method described in Example 2 and administered in groups according to Table 3. After 28 days, the right lower lobe of lung tissue of the experimental animals was taken, and fixed with 4% (v/v) paraformaldehyde and embedded in paraffin. Section was performed on the largest cross-section of the paraffin block in which the lung tissue embedded, and basic pathological changes was observed through HE staining. […] The administration of polypeptides S1-S11 can reduce lung inflammation caused by bleomycin, and effectively ameliorate lung injury and restore normal lung structure.
The inflammatory grading was observed according to the results of HE staining, and the criteria were as follows (grade 0-5): grade “0”: normal tissue; grade “1”: extremely small inflammatory changes; grade “2”: mild to moderate inflammatory changes without apparent destruction of lung tissue structure; grade “3”: moderate inflammatory injury (thickening of alveolar diaphragm); grade “4”: moderate to severe inflammatory injury with formation of tissue mass, or the normal structure of lung tissue was destroyed by localized pneumonia area; grade “5”: severe inflammatory injury, severe destruction of the localized lung tissue structure, resulting in closure of lumen.
Pulmonary fibrosis models were made according to the method described in Example 2 and administered in groups according to Table 9. After 28 days, the right lower lobe of lung tissue of the experimental animals was taken, and fixed by 4% (v/v) paraformaldehyde and embedded in paraffin. Section was performed on the largest cross-section of the paraffin block in which the lung tissue embedded, and basic pathological changes was observed through HE staining.

Compound | interaction of TRB3 and MDM2 protein (FIG. 5, in words) [1] | interaction with the TRB3 protein (in words) [2] | α-helicity (%) [3] [%] | α-helix ratio compared with polypeptide MR2 (in words) [3] | Inflammatory score [4] | Inflammatory scoring [4]
CC(C)C[C@H](NC(=O)[C@H](CCCCN)NC(=O)[C@H](CCCCN)NC(=O)[C@H](C)NC(=O)[C@H](CS)NC(=O)[C@]1(C)CCCC=CCCC[C@](C)(NC(=O)[C@H](CC(C)C)NC(=O)[C@@H](N)Cc2c[nH]cn2)C(=O)N[C@@H](C)C(=O)N[C@@H](CS)C(=O)N[C@@H](Cc2ccccc2)C(=O)N1)C(=O)N[C@@H](CCCCN)C(=O)N[C@@H](CCCCN)C(=O)N[C@@H](CCCNC(=N)N)C(=O)O [S3, His-Leu-S5-Ala-Cys-Phe-S5-Cys-Ala-Lys-Lys-Leu-Lys-Lys-Arg] (H-HL[S5]ACF[S5]CAKKLKKR-OH; staple 3-7; N-terminus and C-terminus assumed) | interrupted | interacted with the TRB3 protein | 42.1 | significantly higher than that of polypeptide MR2 | 2.5 | 
CSCC[C@H](NC(=O)[C@H](CC(C)C)NC(=O)[C@@H](N)Cc1c[nH]cn1)C(=O)N[C@@H](C)C(=O)N[C@@H](CS)C(=O)N[C@@]1(C)CCCC=CCCC[C@@](C)(C(=O)N[C@@H](CCCCN)C(=O)N[C@@H](CC(C)C)C(=O)N[C@@H](CCCCN)C(=O)N[C@@H](CCCCN)C(=O)N[C@@H](CCCNC(=N)N)C(=O)O)NC(=O)[C@H](C)NC(=O)[C@H](CS)NC(=O)[C@H]([C@@H](C)O)NC1=O [S6, His-Leu-Met-Ala-Cys-S5-Thr-Cys-Ala-S5-Lys-Leu-Lys-Lys-Arg] (H-HLMAC[S5]TCA[S5]KLKKR-OH; staple 6-10; N-terminus and C-terminus assumed) | interrupted | interacted with the TRB3 protein | 36.4 | significantly higher than that of polypeptide MR2 | 3 | 
CSCC[C@H](NC(=O)[C@H](CC(C)C)NC(=O)[C@@H](N)Cc1c[nH]cn1)C(=O)N[C@@H](C)C(=O)N[C@@H](CS)C(=O)N[C@@H](Cc1ccccc1)C(=O)N[C@H](C(=O)N[C@@H](CS)C(=O)N[C@@H](C)C(=O)N[C@@H](CCCCN)C(=O)N[C@@]1(C)CCCC=CCCC[C@@](C)(C(=O)O)NC(=O)[C@H](CCCCN)NC(=O)[C@H](CCCCN)NC(=O)[C@H](CC(C)C)NC1=O)[C@@H](C)O [S11, His-Leu-Met-Ala-Cys-Phe-Thr-Cys-Ala-Lys-S5-Leu-Lys-Lys-S5] (H-HLMACFTCAK[S5]LKK[S5]-OH; staple 11-15; N-terminus and C-terminus assumed) | interrupted | interacted with the TRB3 protein | 37.8 | significantly higher than that of polypeptide MR2 | 3 | 
CSCC[C@@H]1NC(=O)[C@@](C)(NC(=O)[C@@H](N)Cc2c[nH]cn2)CCCC=CCCC[C@@](C)(C(=O)N[C@H](C(=O)N[C@@H](CS)C(=O)N[C@@H](C)C(=O)N[C@@H](CCCCN)C(=O)N[C@@H](CCCCN)C(=O)N[C@@H](CC(C)C)C(=O)N[C@@H](CCCCN)C(=O)N[C@@H](CCCCN)C(=O)N[C@@H](CCCNC(=N)N)C(=O)O)[C@@H](C)O)NC(=O)[C@H](CS)NC(=O)[C@H](C)NC1=O [S2, His-S5-Met-Ala-Cys-S5-Thr-Cys-Ala-Lys-Lys-Leu-Lys-Lys-Arg] (H-H[S5]MAC[S5]TCAKKLKKR-OH; staple 2-6; N-terminus and C-terminus assumed) | interrupted | interacted with the TRB3 protein | 25.7 | significantly higher than that of polypeptide MR2 | 2.667 | 
S21: chimeric polypeptide Antp-MR2, amino acid sequence SEQ ID NO: 21 (RQIKIWFQNRRMKWKKGGHLMACFTCAKKLKKR; chimeric polypeptide Antp-MR2 S21) |  |  |  |  |  | 2.667
CSCC[C@H](NC(=O)[C@H](CC(C)C)NC(=O)[C@@H](N)Cc1c[nH]cn1)C(=O)N[C@@H](C)C(=O)N[C@@]1(C)CCCC=CCCC[C@@](C)(C(=O)N[C@@H](CCCCN)C(=O)N[C@@H](CCCCN)C(=O)N[C@@H](CC(C)C)C(=O)N[C@@H](CCCCN)C(=O)N[C@@H](CCCCN)C(=O)N[C@@H](CCCNC(=N)N)C(=O)O)NC(=O)[C@H](CS)NC(=O)[C@H]([C@@H](C)O)NC(=O)[C@H](Cc2ccccc2)NC1=O [S5, His-Leu-Met-Ala-S5-Phe-Thr-Cys-S5-Lys-Lys-Leu-Lys-Lys-Arg] (H-HLMA[S5]FTC[S5]KKLKKR-OH; staple 5-9; N-terminus and C-terminus assumed) | interrupted | interacted with the TRB3 protein | 69.1 | significantly higher than that of polypeptide MR2 | 2.333 | 
S19: chimeric polypeptide Pep2-MR2, amino acid sequence SEQ ID NO: 19 (HLYVSPWGGHLMACFTCAKKLKKR; chimeric polypeptide Pep2-MR2 S19) |  |  |  |  |  | 1.833
S20: chimeric polypeptide TAT-MR2, amino acid sequence SEQ ID NO: 20 (YGRKKRRQRRRGGHLMACFTCAKKLKKR; chimeric polypeptide TAT-MR2 S20) |  |  |  |  |  | 2.333
